Assay: gradient 5% acetonitrile 3 min, to 50% in 2 min, to 85% in 15 min, held 3 min, 100 µL/min
Settings: column: Zorbax Extend-C18 2.1 x 50 mm; eluents: water / acetonitrile, 0.1% formic acid
Procedure, shortened: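 Values are retention times taken from adduct peaks that software picked and an analyst inspected. The pure standards were run as mixtures of ~100 molecules on HPLC linked to a quadrupole time-of-flight mass spectrometer, in positive and negative ionization mode. A Zorbax Extend-C18 column (2.1 × 50 mm, 1.8 μm) was used at 100 μL/min with water and acetonitrile, each including 0.1% formic acid.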

SMILES | RP-LC retention time [s]
CC1CCC(C(=O)Nc2ccc3c(c2)n(C)c(=O)c(=O)n3C)CC1 (stereo unspecified) | 737
COc1ccc(OC)c(NC(=O)COc2nc(C)nc3ccccc23)c1 | 725
COc1cccc(C(O)CN2CCN(c3ccc(C)cc3)CC2)c1 (stereo unspecified) | 677
Cc1ccc(CNC(=O)c2ccc(-c3ccsc3)nc2)cc1 | 905
c1ccc(-c2nnc3sc(-c4ccc5c(c4)OCO5)nn23)nc1 | 759
CCOc1ccc(NC(=O)N2CCC3(CC2)NC(=O)c2ccc(Cl)cc2N3CC)cc1 | 874
O=C(c1ccc2ncccc2c1)N1C[C@@H](CO)[C@H](c2ccccn2)C1 | 543
Cc1ccccc1NC(=O)N1CCN(c2nc3ccccc3nc2C(F)(F)F)CC1 | 1070
CCCCNC(=O)c1cc(NC(=O)C2CCC2)cc2nc(C)ccc12 | 644
O=C(NCC1CCN(c2cc(-c3cccnc3)[nH]n2)CC1)c1ccc2c(c1)OCO2 | 600
CC1CCCCN1CCCNC(=O)Cn1c2ccccc2c2cnn(C)c(=O)c21 (stereo unspecified) | 600
CCc1noc(-c2nc(-c3ccc(OC)cc3OC)no2)n1 | 976
CC1(C(=O)NCc2ccccc2)CCCN(S(=O)(=O)c2ccccc2)C1 (stereo unspecified) | 883
O=C(COc1ccc(Br)cc1)NCc1ccc2c(c1)OCCCO2 | 933
CCn1cc(CC(=O)NCc2ccc(F)cc2)c2cccnc21 | 708
COc1ccccc1CCc1nc(C2CC(=O)N(c3ccc(F)c(Cl)c3)C2)no1 (stereo unspecified) | 1110
COc1ccc2[nH]cc(CCN3CC(C(=O)Nc4cc(C)ccc4C)CC3=O)c2c1 (stereo unspecified) | 774
COCCN1C(=O)c2ccccc2C(C(=O)NCc2ccccn2)C1c1cccs1 (stereo unspecified) | 642
CCOc1ccc(Nc2c(-c3cccc(O)c3)nc3cnccn23)cc1 | 746
COc1ccc(S(=O)(=O)N2CCc3nn(CC(C)C)c(=O)n3CC2)cc1OC | 745
Cc1ccc(NC(=O)NCC2CCOCC2)cc1 | 704
O=C(CC1c2ncccc2C(=O)N1c1ccccc1)N1CCN(C2CCCCC2)CC1 (stereo unspecified) | 591
Cc1sc(-c2nnc(C3CC3)o2)cc1NC(=O)Cc1ccc(F)cc1 | 956

SMILES | RP-LC retention time [s]
Cc1ccccc1Cn1cc(-c2ccncc2)cc1C(=O)Nc1ccc2c(c1)OCO2 | 749
CO[C@H]1C(=O)N(C(C)C)[C@H]1C1CCN(S(=O)(=O)c2cccnc2)CC1 | 700
Cc1cc(S(=O)(=O)N(C)CC2CCOC2)ccc1F (stereo unspecified) | 836
CC(C)(C)NC(=O)CN1CCC(c2nc(-c3ccc(F)cc3)no2)CC1 | 675
C=CCNC(=O)CCc1c(-c2ccc(F)cc2)nc2ccccn12 | 589
CC(C)Cn1c(=O)c2ccccc2n(Cc2nc(-c3ccc(Br)cc3)no2)c1=O | 1300
O=C(c1c[nH]c2ccccc12)N1CCC(c2nc(-c3ccccc3)no2)C1 (stereo unspecified) | 901
Cc1sc(-c2noc(C(C)C)n2)cc1S(=O)(=O)N1CCC(C(=O)NC2CCCCC2)CC1 | 1090
O=C(Nc1c(-c2ccc(F)cc2)nc2ccccn12)c1ccc2ccccc2c1 | 752
O=C(CSc1nc2ccccc2[nH]1)Nc1nccs1 | 613
Cc1[nH]c(=O)[nH]c(=O)c1CCC(=O)Nc1ccccc1C(N)=O | 547
CC(C)(C)c1ccc(-c2noc(Cn3c(=O)n(CCc4ccccc4)c(=O)c4sccc43)n2)cc1 | 1360
Nc1cc(C2CCN(C(=O)Nc3ccc(Cl)cc3)CC2)no1 | 722
COCCn1c(SCc2nc(-c3ccc4c(c3)OCO4)no2)nc2cc3c(cc2c1=O)OCO3 | 1060
COc1ccc(-c2cc3nn(CC(=O)Nc4ccccc4F)c(=O)n3c(C)n2)cc1 | 901
CC(NC(=O)CCc1ccccc1)C(=O)Nc1nc2ccccc2[nH]1 (stereo unspecified) | 654
Cc1c(C)n(CC(O)CNC(C)c2ccccc2)c2ccccc12 (stereo unspecified) | 605
C=CCN=C(NC#N)SC | 696
CCNc1nc(C)cc(N2CCN(S(=O)(=O)c3ccc(C(F)(F)F)cc3)CC2)n1 | 754
Cc1nnc(C2CCCCCN2C(=O)c2cn[nH]c2)o1 (stereo unspecified) | 597
O=C(CSc1ccc(N2CCCC(C(=O)NC3CC3)C2)nn1)Nc1cccc(F)c1 (stereo unspecified) | 611
CCN(CC)S(=O)(=O)c1cc(-c2nnc(-c3ccccc3OC)o2)ccc1C | 1030
COc1ccc(Cn2c(=O)c3sccc3n(Cc3nc(-c4ccc(Cl)c(F)c4)no3)c2=O)cc1 | 1190

SMILES | RP-LC retention time [s]
COc1ccc(Cc2nc(-c3ccc4c(c3)nc(C)c(=O)n4C)no2)cc1OC | 894
Cc1ccccc1NC(=O)N1CCC(N(CCC(C)C)C2CCOCC2)CC1 | 636
Cc1cc(C)n(-c2cc(N3CCCC(C(=O)Nc4nnc(C)s4)C3)ncn2)n1 (stereo unspecified) | 717
O=C(Cn1nc(C(=O)N2CCOCC2)c2ccccc21)Nc1ccc(F)cc1F | 732
O=C(Cn1c(=O)c2cccn2c2ccccc21)NCCN1CCOCC1 | 592
Cc1cc(C)c(S(=O)(=O)N2CCC(n3cnc4ccc(C)cc4c3=O)CC2)c(C)c1 | 640
COc1ccc(-c2nnc(N3CCC(C(=O)NCc4cccs4)CC3)o2)cc1 | 767
C=CCN1C(=O)COc2ccc(-c3nc(NC(=O)c4cccs4)sc3C)cc21 | 998
CCC(=O)N1CCc2c(sc3ncnc(N)c23)C1 | 575
CCS(=O)(=O)Nc1ccc(-c2noc(C(C)NS(=O)(=O)c3ccc(C)cc3)n2)cc1 (stereo unspecified) | 836
COC(=O)c1cc2c(=O)n(-c3cc(Cl)ccc3Cl)ccc2nc1C | 944
CCn1cnc(S(=O)(=O)N2CCCC(C(=O)NCc3ccccc3)C2)c1 (stereo unspecified) | 768
CCC1CN2C=Nc3oc(C)c(C(=O)Nc4ccc5c(c4)OCO5)c3C2=N1 (stereo unspecified) | 632
Cc1ccc(NS(=O)(=O)c2cc3n(c2)CCCN(C(C)C)C3=O)cc1 | 778
O=C(NCCc1ccccc1)N1CCN(c2ncccc2-c2nnc(C3CC3)o2)CC1 | 765
Cn1c(C(=O)NCCN2CCCCCC2)cc2c(-c3cccs3)nn(-c3ccccc3)c21 | 782
O=C(NC1CC1)c1ccccc1OCC1CCN(C(=O)c2ccc(F)cc2)CC1 | 805
c1ccc(-c2nc3ncc4c(n3n2)CCCCC4)cc1 | 892
CCOC(=O)CCC(=O)N1CCN(Cc2nc(C(C)(C)C)cs2)CC1 | 611
Cc1ccccc1C(=O)NCc1ccc2c(c1)ncn2C | 576
COc1ccc(-c2nnc(COc3ccc(NC(=O)c4ccnn4C)cc3)o2)cc1 | 790
COc1ccccc1NC(=O)Cn1cnc2nc(N3CCC(C(=O)NC4CC4)CC3)sc2c1=O | 656
Cc1nc(CCNS(=O)(=O)c2ccc(Cl)cc2)no1 | 769

SMILES | RP-LC retention time [s]
Cc1ccn2cc(C(=O)N3CCN(c4cccc(C)c4C)CC3)nc2c1 | 769
COC(=O)COc1cc(O)c2c(=O)cc(-c3ccccc3)oc2c1 | 990
CCCN(CC1CCOC1)C(=O)c1cc(F)cc(F)c1 (stereo unspecified) | 808
Cc1ccc(CNC(=O)C2(C)Cn3nc(C(=O)NCc4ccccc4C)cc3C(=O)N2C)cc1 (stereo unspecified) | 823
Cc1cc(NC(=O)CC(=O)Nc2ccc3nc4n(c(=O)c3c2)CCCCC4)no1 | 636
Cn1c(Nc2ccc(C(F)(F)F)cc2)nc2cc(Oc3ccnc(-c4ncc(C(F)(F)F)[nH]4)c3)ccc21 | 994
O=C(NCc1ccccc1C(F)(F)F)c1ccc2c(c1)ncn2CCN1CCCC1 | 599
CCCC(=O)Nc1ccc(-c2nc(-c3ccccc3)co2)cc1 | 1010
CC(C)(CO)NS(=O)(=O)c1cc(-c2nnc(-c3ccccc3)o2)ccc1F | 773
COC(=O)c1ccc(CN2CC(=O)N3CCCC3C2=O)cc1 (stereo unspecified) | 616
CC(=O)Nc1onc(C)c1-c1ccc(C)c(S(=O)(=O)Nc2ccc(C)cc2Cl)c1 | 864
CC(C)CCC(=O)N1CCC2(CC1)CC(C)(O)CCO2 (stereo unspecified) | 698
O=C(Nc1ccc(C2=NCCN2)cc1)c1ccc(Cl)c(C(=O)Nc2ccc(C3=NCCN3)cc2)c1 | 618
Cc1nc2cccnc2n1C1CCN(C(=O)Nc2ccccc2F)CC1 | 605
COC(=O)c1sc2ccccc2c1S(=O)(=O)N1CCN(c2ccccn2)CC1 | 752
CC(=O)N1CCc2cc(-c3ccc(C(=O)N4CCC(C)CC4)cc3)ccc21 | 889
CCC1(CC=C2CCCCC2)C(=O)NC(=O)NC1=O | 863
Cc1ccc(S(=O)(=O)N2CCOCC2)cc1-c1nnc(-c2ccc(Cl)cc2)o1 | 1030
CCOC(=O)C1CCN(c2ncccc2-c2nnc(-c3ccc(C)cc3)o2)CC1 | 1140
Cc1ccc(-c2nnc(C)c(NC3CC3)n2)cc1 | 644
CC1(C(=O)NCc2ccc(F)cc2)CN(S(C)(=O)=O)CC(=O)N1Cc1ccccc1Cl (stereo unspecified) | 848
CC1(C)CC(=O)C2=C(C1)Nc1ccccc1N(CC(=O)NCc1cccnc1)C2c1ccco1 (stereo unspecified) | 614

Source: the METLIN SMRT retention time set (Domingo-Almenara et al. 2019)
